Measured values as given in paper PMC7048285, “Lack of an association between clinical INSTI-related body weight gain and direct interference with MC4 receptor (MC4R), a key central regulator of body weight” (PLoS ONE, 2020).

Legend:
cynomolgous monkeys = conditions: daily oral, 39 weeks, AUC 16- to 30-fold clinical exposure at 50 mg; cited from earlier work
[1] = Human clinical Cmax at recommended clinical dosage; format: in vivo; conditions: unbound (protein-free)
rats = conditions: daily oral, 26 weeks, AUC 16- to 30-fold clinical exposure at 50 mg; cited from earlier work
human MC4R [2] = target: T1, human MC4R (Homo sapiens, UniProt P32245); test: Biochemical radioligand binding assay ([125I]NDP-α-MSH) on membranes of transfected CHO cells; set-up: host or cells: CHO cells (membrane homogenates); conditions: for % inhibition of binding at 100 µM: 100 µM test compound, % inhibition of [125I]NDP-α-MSH specific binding; for IC50: radioligand binding, 0.05 nM [125I]NDP-α-MSH, 8 concentrations
[3] = human plasma; cited from earlier work
[4] = target: T2, human recombinant melanocortin MC4 receptor (Homo sapiens, UniProt P32245); test: Functional cellular cAMP TR-FRET assay, antagonist mode (inhibition of 10 nM NDP-α-MSH response); format: cell-based; conditions: for Antagonist Fold-margin on human Cmax (unbound): antagonist IC50 divided by clinical Cmax (unbound)
T2 construct: host or cells: frozen, irradiated CHO-K1 cells

[5] = read-out: Human efficacious Cmax; total plasma, at recommended clinical dosage; cited from earlier work
mice = conditions: daily oral, 4 weeks, AUC 16- to 30-fold clinical exposure at 50 mg; cited from earlier work
[6] = target: T2, human recombinant melanocortin MC4 receptor; test: Functional cellular cAMP TR-FRET assay, agonist mode; format: cell-based; conditions: for Agonist Fold-margin on human Cmax (unbound): agonist IC50 divided by clinical Cmax (unbound); for IC50: cAMP increase relative to 3 μM NDP-α-MSH control, CHO-K1 cells
human MC4R [7] = target: T1, human MC4R; set-up: method as in earlier work; conditions: 10 μM; previously reported; cited from earlier work

T1 sequence (P32245 whole entry): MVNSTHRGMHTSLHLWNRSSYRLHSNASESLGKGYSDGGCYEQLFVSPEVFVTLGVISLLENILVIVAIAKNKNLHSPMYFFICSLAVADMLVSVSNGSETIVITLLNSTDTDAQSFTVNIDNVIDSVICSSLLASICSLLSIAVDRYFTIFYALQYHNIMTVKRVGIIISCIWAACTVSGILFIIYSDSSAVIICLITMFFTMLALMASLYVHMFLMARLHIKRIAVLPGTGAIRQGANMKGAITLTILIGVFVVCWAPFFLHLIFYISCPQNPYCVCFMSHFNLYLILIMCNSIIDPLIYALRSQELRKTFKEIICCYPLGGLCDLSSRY
T2 sequence (P32245 whole entry): as above

O=C(NCc1c(F)cc(F)cc1F)c1cn2c(c(O)c1=O)C(=O)N1[C@H]3CC[C@H](C3)O[C@@H]1C2 [BIC, bictegravir]
effects on body weight gain (cynomolgous monkeys): no effects on body weight gain
Human efficacious unbound Cmax [1]: 0.034 µM
effects on body weight gain (rats): no effects on body weight gain
% inhibition of binding at 100 µM (human MC4R [2]): 89%
IC50 (human MC4R [2]): 4.9 µM
% unbound [3]: 0.25%
IC50 [4]: > 100 µM
Cmax [5]: 13.7 µM
effects on body weight gain (mice): no effects on body weight gain
Agonist Fold-margin on human Cmax (unbound) [6]: >2900 fold
IC50 [6]: > 100 µM

C[C@H]1CO[C@@H]2Cn3cc(C(=O)NCc4ccc(F)cc4F)c(=O)c(O)c3C(=O)N12 [CAB, cabotegravir]
Human efficacious unbound Cmax [1]: 0.025 µM
% inhibition of binding at 100 µM (human MC4R [2]): 86%
IC50 (human MC4R [2]): 0.46 µM
% unbound [3]: 0.16%
IC50 [4]: > 30 µM
Antagonist Fold-margin on human Cmax (unbound) [4]: >1200 fold
Cmax [5]: 15.7 µM
Agonist Fold-margin on human Cmax (unbound) [6]: >1200 fold
IC50 [6]: > 30 µM

C[C@@H]1CCO[C@H]2Cn3cc(C(=O)NCc4ccc(F)cc4F)c(=O)c(O)c3C(=O)N12 [DTG, dolutegravir]
Human efficacious unbound Cmax [1]: 0.062 µM
inhibition binding value (human MC4R [7]): 64%
% inhibition of binding at 100 µM (human MC4R [2]): 91%
IC50 (human MC4R [2]): 1.7 µM
% unbound [3]: 0.7%
IC50 [4]: 69.4 µM
Antagonist Fold-margin on human Cmax (unbound) [4]: 1120 fold
Cmax [5]: 8.8 µM
Agonist Fold-margin on human Cmax (unbound) [6]: >1600 fold
IC50 [6]: > 100 µM

COc1cc2c(cc1Cc1cccc(Cl)c1F)c(=O)c(C(=O)O)cn2[C@H](CO)C(C)C [EVG, elvitegravir]
Human efficacious unbound Cmax [1]: 0.0225 µM
% inhibition of binding at 100 µM (human MC4R [2]): 56%
IC50 (human MC4R [2]): 13 µM
% unbound [3]: 0.48%
IC50 [4]: 2.75 µM
fold more potent in MC4R antagonism than DTG ([4]; EVG versus DTG): approximately 25 fold
Antagonist Fold-margin on human Cmax (unbound) [4]: 120 fold
Cmax [5]: 4.7 µM
Agonist Fold-margin on human Cmax (unbound) [6]: >13000 fold
IC50 [6]: > 300 µM

Cc1nnc(C(=O)NC(C)(C)c2nc(C(=O)NCc3ccc(F)cc3)c(O)c(=O)n2C)o1 [RAL, raltegravir]
% inhibition of binding at 100 µM (human MC4R [2]): 55%
IC50 (human MC4R [2]): 78 µM
IC50 [4]: > 300 µM
Cmax [5]: 15.7 µM
IC50 [6]: > 300 µM

agouti-related protein (SSRRCVRLHESCLGQQVPCCDPCATCYCRFFNAFCYCRKLGTAMNPCSRT; UniProt O00253 83-132, looked up) [AgRP]
IC50 ([4]; inhibition of 10 nM NDP-α-MSH induced cAMP response, CHO-K1 cells): 0.012 µM
